According to PubChem BioAssay AID602427 (Sanford-Burnham Center for Chemical Genomics, 2012):
Activity calls are given as the source filed them.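 The calls were made as follows: active = EC50 at or below 20 micromolar; inactive = the rest.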

Target: Neurotensin receptor type 1 (Homo sapiens) (UniProt P30989)
Assay: NTSR1 activation via enzyme-fragment complementation – cell-based, luminescence, CHO-K1 NTSR1 PathHunter, orthogonal assay for NTR1 agonist project, SAR follow-up (AID 602427);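 also: agonist potency for NTR1 activation where higher luminescence means more arrestin recruitment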
Details: CHO-K1 NTSR1 PathHunter beta-arrestin

Neurotensin receptor type 1 (Homo sapiens), sequence (P30989 whole entry, looked up, the tested form may be a part): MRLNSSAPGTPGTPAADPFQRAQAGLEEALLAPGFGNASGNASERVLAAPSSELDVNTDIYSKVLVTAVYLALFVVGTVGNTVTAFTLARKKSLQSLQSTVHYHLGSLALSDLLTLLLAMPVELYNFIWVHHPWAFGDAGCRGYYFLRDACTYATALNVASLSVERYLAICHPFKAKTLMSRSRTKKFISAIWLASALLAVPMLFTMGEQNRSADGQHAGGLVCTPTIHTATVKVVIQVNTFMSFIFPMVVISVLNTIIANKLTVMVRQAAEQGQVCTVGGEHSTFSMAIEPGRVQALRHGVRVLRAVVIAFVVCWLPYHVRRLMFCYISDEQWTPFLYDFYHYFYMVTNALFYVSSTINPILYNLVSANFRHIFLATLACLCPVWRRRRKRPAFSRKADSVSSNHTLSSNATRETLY

EC50 | Compound
inactive | COc1cc2c3nnc(-c4ccc(C)c(C)c4)c-3cn(Cc3ccccc3)c2cc1OC
> 33 µM (inactive) | CC(C)C[C@H](NC(=O)c1cn(-c2ccnc3cc(Cl)ccc23)c(-c2ccccc2)n1)C(=O)O
0.546 µM | COc1ccccc1-c1cc(C(=O)N[C@@H](CC(C)C)C(=O)O)nn1-c1ccnc2cc(Cl)ccc12
> 33 µM (inactive) | CC(C)C[C@H](NC(=O)c1cn(-c2ccnc3ccccc23)c2ccccc12)C(=O)O
> 33 µM (inactive) | CC(C)C[C@H](NC(=O)c1nc(-c2ccnc3ccccc23)c(-c2ccccc2)s1)C(=O)O
> 33 µM (inactive) | COc1cc2c(=O)c(C(=O)c3ccc(F)cc3)cn(Cc3ccc(Cl)cc3)c2cc1OC
> 33 µM (inactive) | COc1ccc(C(=O)c2cn(Cc3ccncc3)c3ccccc3c2=O)cc1
> 33 µM (inactive) | COc1cccc(OC)c1-c1nc(C(=O)N[C@@H](CC(C)C)C(=O)O)cn1-c1ccc(C)cc1
inactive | COc1cc2c3nnc(-c4ccc(C)cc4)c-3cn(Cc3ccccc3)c2cc1OC
> 33 µM (inactive) | COc1cc2c3nnc(-c4ccc(F)cc4)c-3cn(Cc3ccc(C)cc3)c2cc1OC
> 33 µM (inactive) | CC(C)C[C@H](NC(=O)c1nc(-c2ccncc2)c(-c2ccccc2)s1)C(=O)O
> 33 µM (inactive) | COc1cccc(OC)c1-c1cc(C(=O)NC2(C(=O)O)C3CC4CC(C3)CC2C4)nn1-c1ccc(C(=O)N(C)CCCN(C)C)cc1C(C)C (configuration not stated)
> 33 µM (inactive) | COc1cccc(OC)c1-c1nc(C(=O)NC2(C(=O)O)C3CC4CC(C3)CC2C4)cn1-c1ccnc2cc(Cl)ccc12 (configuration not stated)
> 33 µM (inactive) | CC(C)C[C@H](NC(=O)c1cn(-c2ccncc2)c(-c2ccccc2)n1)C(=O)O
> 33 µM (inactive) | COc1ccccc1-c1nc(C(=O)N[C@@H](CC(C)C)C(=O)O)cn1-c1ccncc1
6.08 µM | COc1cccc(OC)c1-c1nc(C(=O)N[C@@H](CC(C)C)C(=O)O)cn1-c1cccc2ccccc12
> 33 µM (inactive) | COc1cc2c3nnc(-c4ccccc4)c-3cn(Cc3ccccc3)c2cc1OC
> 33 µM (inactive) | COc1cccc(OC)c1-c1cc(C(=O)N[C@@H](CC(C)C)C(=O)O)nn1-c1ccnc2cc(Cl)ccc12
> 33 µM (inactive) | COc1cccc(OC)c1-c1nc(C(=O)N[C@@H](CC(C)C)C(=O)O)cn1-c1ccncc1
> 33 µM (inactive) | COc1ccc(-c2nc(C(=O)N[C@@H](CC(C)C)C(=O)O)cn2-c2ccnc3cc(Cl)ccc23)c(OC)c1

Continued, compound first:

Compound | EC50
Cc1ccc(C)c(-n2ncc3c(N4CCN(c5ccccc5)CC4)ncnc32)c1 | > 33 µM (inactive)
COc1ccc(Cn2c(SCc3ccccc3C)nc3cc(OC)c(OC)cc3c2=N)cc1Cl | > 33 µM (inactive)
COc1cc2c3nnc(-c4ccc(Cl)cc4)c-3cn(Cc3ccccc3)c2cc1OC | > 33 µM (inactive)
CCCSc1nc2cc(OC)c(OC)cc2c(=N)n1Cc1ccccc1Cl | > 33 µM (inactive)
COc1cc2nc(-c3ccccc3)nc(N3CCN(c4ccccc4)CC3)c2cc1OC | > 33 µM (inactive)
COc1ccc(-c2nnc3c4ccccc4n(Cc4ccccc4)cc2-3)cc1 | > 33 µM (inactive)
COc1ccc(-n2ncc3c(N4CCN(c5ccccc5)CC4)ncnc32)cc1 | > 33 µM (inactive)
CN(C)S(=O)(=O)c1ccc(-c2csc(N/N=C/c3ccccc3)n2)cc1 | > 33 µM (inactive)
CCOc1ccc(-c2nnc3c4cc(OC)c(OC)cc4n(Cc4ccc(F)cc4)cc2-3)cc1 | inactive
COc1cc2nc(C)nc(N3CCN(c4ccccc4OC)CC3)c2cc1OC | > 33 µM (inactive)
CCc1ccc(-c2nnc3c4cc(OC)c(OC)cc4n(Cc4ccccc4)cc2-3)cc1 | > 33 µM (inactive)
Cc1ccc(Cn2cc3c(-c4ccc(F)cc4)nnc-3c3ccccc32)cc1 | > 33 µM (inactive)
COc1cc2c3nnc(-c4ccc(F)cc4)c-3cn(Cc3ccc(Cl)cc3)c2cc1OC | > 33 µM (inactive)
COc1ccc(C(=O)c2cn(Cc3ccccc3)c3ccccc3c2=O)cc1 | > 33 µM (inactive)
COc1cc2c3nnc(-c4ccc(Cl)cc4)c-3cn(Cc3ccc(C)cc3)c2cc1OC | > 33 µM (inactive)
COc1ccc(C(=O)c2cn(CCc3ccccc3)c3ccccc3c2=O)cc1 | > 33 µM (inactive)
CCN(CC)c1ccc(/C=N/Nc2nc(-c3ccc(S(=O)(=O)N(C)C)cc3)cs2)cc1 | > 33 µM (inactive)
CCOc1cc2nc(-c3ccc(OC)c(OC)c3)nc(N3CCN(c4ccccc4)CC3)c2cc1OC | > 33 µM (inactive)
COc1cc2nc(C3CCC3)nc(N3CCN(c4ccccc4Cl)CC3)c2cc1OC | > 33 µM (inactive)
COc1ccc(N2CCN(c3ncnc4c3cnn4-c3ccc(C)cc3C)CC2)cc1 | > 33 µM (inactive)
COc1cc2c3nnc(-c4ccc(C)cc4)c-3cn(Cc3ccc(C)cc3)c2cc1OC | > 33 µM (inactive)

Compound | EC50
c1ccc(Cn2cc3c(-c4ccccc4)nnc-3c3ccccc32)cc1 | > 33 µM (inactive)
O=S(=O)(c1ccc(-c2csc(N/N=C/c3ccco3)n2)cc1)N1CCCC1 | > 33 µM (inactive)
COc1ccc(Cn2c(SCc3ccccc3)nc3cc(OC)c(OC)cc3c2=N)cc1Cl | > 33 µM (inactive)
CCc1ccc(-c2nnc3c4cc(OC)c(OC)cc4n(Cc4ccc(F)cc4)cc2-3)cc1 | > 33 µM (inactive)
COc1ccc2c3nnc(-c4ccc(C)cc4)c-3cn(Cc3ccc(F)cc3)c2c1 | > 33 µM (inactive)
COc1ccc(-c2nnc3c4cc(OC)c(OC)cc4n(Cc4ccc(F)cc4)cc2-3)cc1 | > 33 µM (inactive)
COc1ccc2c(c1)c1nnc(-c3ccc(F)cc3)c-1cn2Cc1ccc(F)cc1 | > 33 µM (inactive)
Cc1ccc(Cn2cc3c(-c4ccc(C)c(C)c4)nnc-3c3cc4c(cc32)OCO4)cc1 | > 33 µM (inactive)
COc1ccc(Cn2cc3c(-c4ccc(F)cc4)nnc-3c3cc(OC)c(OC)cc32)cc1 | > 33 µM (inactive)
COc1ccc(Cn2c(SCc3cccc(C(F)(F)F)c3)nc3cc(OC)c(OC)cc3c2=N)cc1Cl | > 33 µM (inactive)
COc1cc2nc(C3CC3)nc(N3CCN(c4ccccc4OC)CC3)c2cc1OC | 3.8 µM
Cc1ccc(-n2ncc3c(N4CCN(c5ccc(F)cc5)CC4)ncnc32)c(C)c1 | > 33 µM (inactive)
Cc1ccc(-n2ncc3c(N4CCN(c5ccc(Cl)c(Cl)c5)CC4)ncnc32)c(C)c1 | > 33 µM (inactive)
Cc1ccc(Cn2cc3c(-c4ccc(C)cc4)nnc-3c3cc4c(cc32)OCO4)cc1 | > 33 µM (inactive)
CCN(CC)S(=O)(=O)c1ccc(-c2csc(N/N=C/c3ccco3)n2)cc1 | > 33 µM (inactive)
COc1ccc(-c2nnc3c4ccccc4n(Cc4ccc(C)cc4)cc2-3)cc1 | > 33 µM (inactive)
Clc1ccc(-c2nnc3c4cc5c(cc4n(Cc4ccccc4)cc2-3)OCO5)cc1 | > 33 µM (inactive)
Clc1ccc(-n2ncc3c(N4CCN(c5ccccc5)CC4)ncnc32)cc1 | > 33 µM (inactive)
CCOc1cc2nc(-c3ccc(OC)c(OC)c3)nc(N3CCN(c4ccccc4F)CC3)c2cc1OC | > 33 µM (inactive)
COc1cc2nc(-c3ccccc3)nc(N3CCN(c4ccccc4OC)CC3)c2cc1OC | > 33 µM (inactive)
COc1ccc(Cn2cc3c(-c4ccc(OC)cc4)nnc-3c3ccccc32)cc1 | > 33 µM (inactive)
